The values that follow come from publication PMC3702004, “Comparison of Intake and Systemic Relative Effect Potencies of Dioxin-like Compounds in Female Mice after a Single Oral Dose” (Environmental Health Perspectives, 2013).

Structures are written as SMILES.

For series [1], the system named is Cyp1b1 mRNA in PBLs. The series is described as follows: Cyp1b1 gene expression in peripheral blood lymphocytes. The format is in vivo, female C57BL/6 mice. The following applies: for BMR20TCDD PBLs Cyp1b1 mRNA: 3 days after single oral dose; for REP PBLs Cyp1b1 mRNA: relative to TCDD; for Effect on Cyp1b1 mRNA in PBLs: single oral dose. Here is the method: (§1) Animals. Eight-week-old female C57BL/6 mice (Harlan laboratories, Venray, the Netherlands) were randomly assigned to treatment groups (six animals per group) and allowed to acclimate for 1.5 weeks. The animals were housed in groups in standard cages and conditions (23 ± 2°C, 50–60% relative humidity, 12-hr dark/light cycle) with free access to food and water. Mice received a single dose of test compound by oral gavage at a dosing volume of 10 mL/kg body weight (BW). Mice treated with corn oil vehicle (10 mL/kg BW) served as controls. For each congener, five different doses were administered, ranging from 0.5–100 μg/kg BW (TCDD) to 5,000–500,000 µg/kg BW (PCB-153). Detailed information on doses is provided in Supplemental Material, Table S1 (http://dx.doi.org/10.1289/ehp.1206336). On day 3 after dosing, animals were euthanized by CO2/O2 asphyxiation, and blood was immediately collected from the abdominal aorta. The liver, thymus, spleen, and adipose tissue were removed, weighed (liver, thymus, and spleen), snap frozen, and stored at –80°C. All animal treatments were performed with permission of the Animal Ethical Committee (DEC Utrecht) and performed according to the [Law on Animal Experiments (1977)]. Animals were treated humanely and with regard for alleviation of suffering.
Plasma and PBL isolation. Blood from two mice was pooled (total volume of approximately 1.4 mL); plasma and PBLs were then isolated using Ficoll Paque gradient (GE Healthcare Europe, Diegem, Belgium). Plasma samples were stored at –80°C until compound analysis. Isolated lymphocytes were lysed with RLT buffer (QIAGEN, Venlo, the Netherlands) as described in the QIAGEN RNAeasy kit protocol and stored at –80°C until use.
(§2) RNA isolation and quantitative real-time polymerase chain reaction (PCR). Total RNA was isolated from liver and PBLs using a QIAGEN RNeasy kit (QIAGEN). Purity and concentration of the isolated RNA was determined by measuring the absorbance ratio at 260/280 nm and 230/260 nm with a Nanodrop 2000 spectrophotometer (Thermo Scientific, Asheville, NC, USA). RNA was reverse transcribed to complementary DNA (cDNA) using the iScript cDNA synthesis Kit (Bio-Rad, Veenendaal, the Netherlands). Quantitative real-time PCR analyses were performed using the iQ Real-Time PCR Detection System with SYBR green (Bio-Rad). Amplification reactions were set up with […] containing 12.5 μL iQ SYBR Green Supermix (Bio-rad), 0.5 μL distilled H2O, 1 μL (10 μM) forward primer, 1 μL (10 μM) reverse primer, and 10 μL first strand cDNA (10X diluted). Primer sequences were as follows: Cyp1a1: forward-5´-GGTTAACCATGACCGGGAACT-3´ and reverse-5´-TGCCCAAACCAAAGAGAGTGA-3´ ([Schulz et al. 2012]); Cyp1a2: forward-5´-ACATTCCCAAGGAGCGCTGTATCT-3´ and reverse-5´-GTCGATGGCCGAGTTGTTATTGGT-3´ ([Flaveny et al. 2010]); Cyp1b1: forward-5´-GTGGCTGCTCATCCTCTTTACC-3´ and reverse-5´-CCCACAACCTGGTCCAACTC-3´ ([Berge et al. 2004]); β-actin: forward-5´-ATGCTCCCCGGGCTGTAT-3´ and reverse-5´-CATAGGAGTCCTTCTGACCCATTC-3´ ([Schulz et al. 2012]). All primers were run through the National Center for Biotechnology Information Primer-BLAST database (http://www.ncbi.nlm.nih.gov/tools/primer-blast/) to confirm specificity and validate for optimal annealing temperature (60°C for all primers) and efficiency. The efficiency of all primer pairs was 98–102% (tested at 60°C). The following program was used for denaturation and amplification of cDNA: 3 min at 95°C, followed by 40 cycles of 15 sec at 95°C and 45 sec at 60°C. Gene expression for each sample was expressed as threshold cycle (Ct), normalized to the reference gene β-actin (ΔCt). We calculated fold induction relative to the control group.
Data analysis. We obtained concentration–response curves using a sigmoidal dose–response nonlinear regression curve fit with variable slope (GraphPad Prism 6.01; GraphPad Software Inc., San Diego, CA, USA): […]

Series [2] deals with Cyp1b1 mRNA in liver. The series is described as follows: Cyp1b1 gene expression in liver (real-time PCR). It counts as in vivo, female C57BL/6 mice. The following applies: for BMR20TCDD Liver Cyp1b1 mRNA: 3 days after single oral dose; for REP Liver Cyp1b1 mRNA: relative to TCDD; for Effect on hepatic Cyp1b1 mRNA expression: single oral dose, day 3. Here is the method: as §1, §2
Data analysis. We obtained concentration–response curves using a sigmoidal dose–response nonlinear regression curve fit with variable slope (GraphPad Prism 6.01; GraphPad Software Inc., San Diego, CA, USA):
In this Hill equation, y is the dependent variable (EROD activity or fold induction of mRNA levels), x the independent variable (administered or systemic dose), E0 is the estimated background response level, Emax is the maximum response, b is the estimated median effective concentration (EC50), and n is the shaping parameter of the Hill curve.
Using the congener-specific BMR20TCDD concentration, REPs were calculated relatively to TCDD: […]
(Quantitative PCR measures a nucleic acid by following its amplification.)

[3] abbreviates: dose metric Adm dose (µg/kg BW).
Setting [4] is: dose metric Syst plasma (ng/g lipid).
[5] abbreviates: dose metric Syst adipose (ng/g lipid).
[6] abbreviates: dose metric Syst liver (ng/g lipid).
[7] abbreviates: dose metric Syst liver (ng/g liver).

Consider `Clc1cc2oc3c(Cl)c(Cl)c(Cl)cc3c2cc1Cl` [Congener 4-PeCDF, 2,3,4,7,8-pentachlorodibenzofuran], for which the figures for the “BMR20TCDD PBLs Cyp1b1 mRNA” value in series [1] (dose metric Adm dose) and in series [1] (dose metric Syst plasma) were 514 µg/kg BW and 212 ng/g lipid, respectively. Moreover, the “REP PBLs Cyp1b1 mRNA” value in series [1] (setting [3]) is given as 0.04; in series [1] (setting [4]) it was 0.3. Besides, the “Effect on Cyp1b1 mRNA in PBLs” value in series [1] (day 3) is recorded as “dose-dependently induced”. For the same compound, the “BMR20TCDD Liver Cyp1b1 mRNA” value in series [2] (dose metric Adm dose) was determined as 150 µg/kg BW; in series [2] (dose metric Syst adipose), 461 ng/g lipid; in series [2] (dose metric Syst plasma), 44.6 ng/g lipid. Moreover, the “REP Liver Cyp1b1 mRNA” value in series [2] (setting [3]) was determined as 0.02; in series [2] (setting [5]), 0.02; in series [2] (setting [6]), 0.01; in series [2] (setting [7]) it was 0.02; in series [2] (setting [4]) it was 0.3. In addition, the “Effect on hepatic Cyp1b1 mRNA expression” value in series [2] is listed as “dose-dependently increased”.

Turning to `Clc1ccc(-c2cc(Cl)c(Cl)cc2Cl)cc1Cl` [PCB-118, 2,3´,4,4´,5-pentachlorobiphenyl], the “Effect on Cyp1b1 mRNA in PBLs” value in series [1] (day 3) is recorded as “did not induce”.

For `Clc1ccc(-c2cc(Cl)c(Cl)c(Cl)c2)cc1Cl` [PCB-126, 3,3´,4,4´,5-pentachlorobiphenyl], in series [1] (highest dose tested, day 3), the “Induction of Cyp1b1 mRNA in PBLs, of the maximal induction of TCDD” value turned out to be 3.5%. Besides, the “Effect on hepatic Cyp1b1 mRNA expression” value in series [2] is “did not induce”.

In the case of `Clc1cc(Cl)c(-c2cc(Cl)c(Cl)cc2Cl)cc1Cl` [PCB-153, 2,2´,4,4´,5,5´-hexachlorobiphenyl], in series [1] (day 3), the “Effect on Cyp1b1 mRNA in PBLs” value is given as “did not induce”.

For `Clc1ccc(-c2cc(Cl)c(Cl)c(Cl)c2Cl)cc1Cl` [PCB-156, 2,3,3´,4,4´,5-hexachlorobiphenyl], in series [1] (day 3), the “Effect on Cyp1b1 mRNA in PBLs” value was “did not induce”. For the same compound, the “BMR20TCDD Liver Cyp1b1 mRNA” value in series [2] (dose metric Adm dose) was 95,664 µg/kg BW; in series [2] (dose metric Syst adipose), 745,126 ng/g lipid; in series [2] (dose metric Syst plasma), 553,459 ng/g lipid. The “REP Liver Cyp1b1 mRNA” value is 0.00004 in series [2] (setting [3]); 0.00001 in series [2] (setting [5]); 0.0003 in series [2] (setting [6]); 0.0004 in series [2] (setting [7]); 0.00002 in series [2] (setting [4]). In series [2], the “Effect on hepatic Cyp1b1 mRNA expression” value is “dose-dependently increased”.

Take `Clc1cc2c(cc1Cl)Oc1c(cc(Cl)c(Cl)c1Cl)O2` [PeCDD, 1,2,3,7,8-pentachlorodibenzodioxin]: the “BMR20TCDD PBLs Cyp1b1 mRNA” value in series [1] (dose metric Adm dose) is listed as 51.8 µg/kg BW; in series [1] (dose metric Syst plasma) it was 63.8 ng/g lipid. In addition, the “REP PBLs Cyp1b1 mRNA” value came to 0.4 in series [1] (setting [3]) and 0.8 in series [1] (setting [4]). Also, the “Effect on Cyp1b1 mRNA in PBLs” value in series [1] (day 3) is “dose-dependently induced”. Further, the “BMR20TCDD Liver Cyp1b1 mRNA” value in series [2] (dose metric Adm dose) came out at 10.1 µg/kg BW; in series [2] (dose metric Syst adipose), 19.4 ng/g lipid; in series [2] (dose metric Syst plasma), 18.5 ng/g lipid. Moreover, the “REP Liver Cyp1b1 mRNA” value in series [2] (setting [3]) stood at 0.4; in series [2] (setting [5]), 0.5; in series [2] (setting [6]), 0.2; in series [2] (setting [7]), 0.3; in series [2] (setting [4]), 0.6. Moreover, the “Effect on hepatic Cyp1b1 mRNA expression” value in series [2] was “dose-dependently increased”.

Regarding `Clc1cc2c(cc1Cl)Oc1cc(Cl)c(Cl)cc1O2` [TCDD, 2,3,7,8-tetrachlorodibenzodioxin, reference compound], the “BMR20TCDD PBLs Cyp1b1 mRNA” value was 20.9 µg/kg BW in series [1] (dose metric Adm dose) and 53.5 ng/g lipid in series [1] (dose metric Syst plasma). The “REP PBLs Cyp1b1 mRNA” value in series [1] (setting [3]) and in series [1] (setting [4]) was 1 each time. Besides, the “Effect on Cyp1b1 mRNA in PBLs” value in series [1] (day 3) is listed as “dose-dependently induced”. In addition, the “BMR20TCDD Liver Cyp1b1 mRNA” value in series [2] (dose metric Adm dose) was 3.55 µg/kg BW; in series [2] (dose metric Syst adipose) it was 10.3 ng/g lipid; in series [2] (dose metric Syst plasma), 11.6 ng/g lipid. Moreover, the “REP Liver Cyp1b1 mRNA” value in series [2] (setting [3]), in series [2] (setting [5]), in series [2] (setting [6]), in series [2] (setting [7]) and in series [2] (setting [4]) was 1 each time. Besides, the “Effect on hepatic Cyp1b1 mRNA expression” value in series [2] was “dose-dependently increased”.
